Measured values taken from the supplement of paper PMC10627819.

Experiments:
[1] = system: B. subtilis 168; assay: fitness (endpoint OD595 vs no drug) (fraction); higher = more growth
Procedure, shortened: (§1)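 Fitness is computed from the optical density at which cultures reach stationary phase, divided by the robust mean of no-drug control wells. Any value above 1 is set to 1. Cultures started at OD595 0.01 in 384-well plates with TSB, LB Lennox or CY at 37 °C, and OD595 was read every 30 min for 14 h against a first-reading background.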

[2] = system: S. aureus DSM 20231; assay: as above
Procedure, shortened: as §1

[3] = system: S. pneumoniae D39V; assay: as above
Procedure, shortened: as §1

[4] = system: B. subtilis 168; assay: Bliss interaction score (quartile over a dose matrix) (fitness difference); higher = more antagonism (negative = synergy)
Procedure, shortened: (§2)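 At entry into stationary phase, OD595 was recorded and divided by the robust mean of the no-drug wells on that plate, with any value above 1 set to 1. This gives the fitness measure used throughout. Single-drug fitness was inferred from combination data, and the Bliss score, observed minus product-expected fitness, is shown as quartiles across technical, biological and donor/recipient replicates.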

[5] = system: S. aureus DSM 20231; assay: as above
Procedure, shortened: as §2

[6] = system: S. aureus Newman; assay: as above
Procedure, shortened: as §2

[7] = system: S. pneumoniae D39V; assay: as above
Procedure, shortened: as §2

[8] = system: S. aureus Newman; assay: fitness (endpoint OD595 vs no drug) (fraction); higher = more growth; conditions: main component drawn
Procedure, shortened: as §1
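For Bliss interaction score (quartile over a dose matrix) in this document: first quartile when negative (synergy) and third quartile when positive (antagonism).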

CC(=O)NC[C@H]1CN(c2ccc(N3CCOCC3)c(F)c2)C(=O)O1 [Linezolid] + CN1C2=CC=CC=C2N=C3C1=CC=CC3=O [Pyocyanin]
one replicate
Conditions	fitness
[1], first compound 0.0625 µg/mL, partner 1.25 µg/mL	0.804
[1], first compound 0.0625 µg/mL, partner 2.5 µg/mL	0.749
[1], first compound 0.0625 µg/mL, partner 5 µg/mL	0.594
[2], first compound 1 µg/mL, partner 1.25 µg/mL	0.0458
[2], first compound 1 µg/mL, partner 2.5 µg/mL	0.0282
[2], first compound 1 µg/mL, partner 5 µg/mL	0.0258
[3], first compound 0.2 µg/mL, partner 0.325 µg/mL	0.892
[3], first compound 0.2 µg/mL, partner 0.65 µg/mL	0.824
[3], first compound 0.4 µg/mL, partner 0.325 µg/mL	0.745
[3], first compound 0.4 µg/mL, partner 0.65 µg/mL	0.745
[3], first compound 0.8 µg/mL, partner 0.325 µg/mL	0.483
[3], first compound 0.8 µg/mL, partner 0.65 µg/mL	0.603

Conditions	fitness
[1], first compound 0.125 µg/mL, partner 1.25 µg/mL	0.563
[1], first compound 0.125 µg/mL, partner 2.5 µg/mL	0.544
[1], first compound 0.125 µg/mL, partner 5 µg/mL	0.466
[1], first compound 0.25 µg/mL, partner 2.5 µg/mL	0.093
[1], first compound 0.25 µg/mL, partner 5 µg/mL	0.131
[1], first compound 0.5 µg/mL, partner 1.25 µg/mL	0.027
[1], first compound 0.5 µg/mL, partner 2.5 µg/mL	0.0397
[1], first compound 0.5 µg/mL, partner 5 µg/mL	0.0383
[2], first compound 0.125 µg/mL, partner 1.25 µg/mL	0.768
[2], first compound 0.125 µg/mL, partner 2.5 µg/mL	0.829
[2], first compound 0.125 µg/mL, partner 5 µg/mL	0.546
[2], first compound 0.25 µg/mL, partner 1.25 µg/mL	0.559
[2], first compound 0.5 µg/mL, partner 1.25 µg/mL	0.208
[2], first compound 0.5 µg/mL, partner 2.5 µg/mL	0.143
[2], first compound 0.5 µg/mL, partner 5 µg/mL	0.0745
[3], first compound 0.105 µg/mL, partner 0.325 µg/mL	0.858
[3], first compound 0.105 µg/mL, partner 0.65 µg/mL	0.882
[3], first compound 0.105 µg/mL, partner 1.3 µg/mL	0.632
[3], first compound 0.21 µg/mL, partner 0.325 µg/mL	0.773
[3], first compound 0.21 µg/mL, partner 0.65 µg/mL	0.775
[3], first compound 0.21 µg/mL, partner 1.3 µg/mL	0.608
[3], first compound 0.42 µg/mL, partner 0.325 µg/mL	0.605
[3], first compound 0.42 µg/mL, partner 0.65 µg/mL	0.589
[3], first compound 0.42 µg/mL, partner 1.3 µg/mL	0.389

Conditions	Bliss interaction score
[4]	0.109
[5]	0.047
[6]	-0.0368
[7]	0.118

CN[C@@H]1[C@H](O)[C@H](NC)[C@H]2O[C@@]3(O)C(=O)C[C@@H](C)O[C@H]3O[C@@H]2[C@H]1O [Spectinomycin] + CCCCCCCCCC(=O)N[C@@H]1[C@H]([C@@H]([C@H](O[C@H]1OC2=C3C=C4C=C2OC5=C(C=C(C=C5)[C@H]([C@H]6C(=O)N[C@@H](C7=C(C(=CC(=C7)O)OC8[C@H]([C@H]([C@@H]([C@H](O8)CO)O)O)O)C9=C(C=CC(=C9)[C@H](C(=O)N6)NC(=O)[C@@H]4NC(=O)[C@@H]1C2=CC(=CC(=C2)OC2=C(C=CC(=C2)[C@H](C(=O)N[C@H](CC2=CC(=C(O3)C=C2)Cl)C(=O)N1)N)O)O)O)C(=O)O)O[C@H]1[C@@H]([C@H]([C@@H]([C@H](O1)CO)O)O)NC(=O)C)Cl)CO)O)O [Teicoplanin]
fitness
Conditions	partner 0.1562 µg/mL	partner 0.3125 µg/mL	partner 0.62 µg/mL	partner 0.625 µg/mL	partner 1.24 µg/mL	partner 2.48 µg/mL
[2], first compound 4 µg/mL, main component drawn	0.938	0.962	–	≥ 1	–	–
[2], first compound 8 µg/mL, main component drawn	≥ 1	0.969	–	≥ 1	–	–
[2], first compound 16 µg/mL, main component drawn	0.889	0.919	–	0.985	–	–
[8], first compound 4 µg/mL, one replicate	–	–	0.792	–	0.743	0.411
[8], first compound 8 µg/mL, one replicate	–	–	0.83	–	0.68	0.505
[8], first compound 16 µg/mL, one replicate	–	–	0.854	–	0.645	0.428
[8], first compound 32 µg/mL, one replicate	0.639	0.694	–	0.666	–	–
[8], first compound 64 µg/mL, one replicate	0.0786	0.071	–	0.0311	–	–

fitness, [2], one replicate, main component drawn
Conditions	partner 0.1562 µg/mL	partner 0.3125 µg/mL	partner 0.625 µg/mL
first compound 32 µg/mL	0.788	0.834	0.992
first compound 64 µg/mL	0.0706	0.0748	0.0694

fitness, [8]
Conditions	first compound 4 µg/mL	first compound 8 µg/mL	first compound 16 µg/mL
partner 0.1562 µg/mL	≥ 1	≥ 1	0.993
partner 0.3125 µg/mL	≥ 1	0.998	0.973
partner 0.625 µg/mL	0.817	0.705	0.831

main component drawn
Conditions	Bliss interaction score
[4]	0.138
[5]	0.0832
[6]	0.0966
[7]	-0.0746

CC(=O)NC[C@H]1CN(c2ccc(N3CCOCC3)c(F)c2)C(=O)O1 [Linezolid] + COc1ccc(C[C@H](N)C(=O)N[C@H]2[C@@H](O)[C@H](n3cnc4c(N(C)C)ncnc43)O[C@@H]2CO)cc1 [Puromycin]
one replicate
Conditions	fitness
[1], first compound 0.0625 µg/mL, partner 0.39 µg/mL	0.885
[1], first compound 0.0625 µg/mL, partner 0.78 µg/mL	0.885
[1], first compound 0.0625 µg/mL, partner 1.56 µg/mL	0.904
[2], first compound 0.125 µg/mL, partner 3.12 µg/mL	0.824
[2], first compound 0.125 µg/mL, partner 6.24 µg/mL	0.287
[2], first compound 0.25 µg/mL, partner 3.12 µg/mL	0.344
[2], first compound 0.25 µg/mL, partner 6.24 µg/mL	0.118
[2], first compound 0.5 µg/mL, partner 3.12 µg/mL	0.0742
[2], first compound 0.5 µg/mL, partner 6.24 µg/mL	0.0788
[2], first compound 1 µg/mL, partner 0.39 µg/mL	0.0293
[2], first compound 1 µg/mL, partner 0.78 µg/mL	0.0469
[2], first compound 1 µg/mL, partner 1.56 µg/mL	0.0437
[3], first compound 0.2 µg/mL, partner 1 µg/mL	0.712
[3], first compound 0.2 µg/mL, partner 2 µg/mL	0.742
[3], first compound 0.2 µg/mL, partner 4 µg/mL	0.608
[3], first compound 0.4 µg/mL, partner 1 µg/mL	0.564
[3], first compound 0.4 µg/mL, partner 2 µg/mL	0.599
[3], first compound 0.4 µg/mL, partner 4 µg/mL	0.404
[3], first compound 0.8 µg/mL, partner 1 µg/mL	0.181
[3], first compound 0.8 µg/mL, partner 2 µg/mL	0.215
[3], first compound 0.8 µg/mL, partner 4 µg/mL	0.15

fitness
Conditions	first compound 0.105 µg/mL	first compound 0.125 µg/mL	first compound 0.21 µg/mL	first compound 0.25 µg/mL	first compound 0.42 µg/mL	first compound 0.5 µg/mL
[1], partner 0.39 µg/mL	–	0.55	–	0.0916	–	0.0287
[1], partner 0.78 µg/mL	–	0.569	–	0.118	–	0.0397
[1], partner 1.56 µg/mL	–	0.599	–	0.128	–	0.0443
[2], partner 0.39 µg/mL	–	0.91	–	0.595	–	0.193
[2], partner 0.78 µg/mL	–	0.849	–	0.591	–	0.209
[2], partner 1.56 µg/mL	–	0.944	–	0.578	–	0.152
[3], partner 1 µg/mL	0.833	–	0.746	–	0.606	–
[3], partner 2 µg/mL	0.788	–	0.685	–	0.323	–
[3], partner 4 µg/mL	0.644	–	0.446	–	0.233	–

Conditions	Bliss interaction score
[4]	0.075
[5]	-0.0587
[6]	-0.0605
[7]	-0.132
